# Experimental data: the supplement of paper PMC9663587
# Key:
# [1] = compound: CN(C)C/C=C/C(=O)Nc1ccc(C(=O)Nc2cccc(Nc3ncc(Cl)c(-c4c[nH]c5ccccc45)n3)c2)cc1 [THZ1]; assay: GR value, 72 h; higher = faster growth (1 = untreated, <0 = killing);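 also: breast cancer and non-malignant breast epithelial lines, nine half-log doses, viable cells counted by Hoechst and LIVE/DEAD dye imaging versus time-zero plates and DMSO controls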
# [2] = compound: CCc1cnn2c(NCc3ccc[n+]([O-])c3)cc(N3CCCC[C@H]3CCO)nc12; assay: as above
# [3] = compound: CN(C)C(=O)c1cc2cnc(Nc3ccc(N4CCNCC4)cn3)nc2n1C1CCCC1 [LEE011/Ribociclib]; assay: as above
# [4] = compound: CCN1CCN(Cc2ccc(Nc3ncc(F)c(-c4cc(F)c5nc(C)n(C(C)C)c5c4)n3)nc2)CC1; assay: as above
# [5] = compound: T1, CN(C)C/C=C/C(=O)Nc1ccc(C(=O)N2CCC[C@@H](Nc3ncc(Cl)c(-c4c[nH]c5ccccc45)n3)C2)cc1 [THZ531]; assay: as above
# [6] = compound: C=CC(=O)Nc1ccc(C(=O)Nc2[nH]nc3c2CN(C(=O)N[C@H](CN(C)C)c2ccccc2)C3(C)C)cc1 [YKL-5-124]; assay: as above
# [7] = compound: CC(=O)c1c(C)c2cnc(Nc3ccc(N4CCNCC4)cn3)nc2n(C2CCCC2)c1=O; assay: as above
# [8] = compound: CC(=O)c1c(C)c2cnc(Nc3ccc(N4CCN(CCOCCOCCOCCNC(=O)COc5cccc6c5C(=O)N(C5CCC(=O)NC5=O)C6=O)CC4)cn3)nc2n(C2CCCC2)c1=O [BSJ-03-123]; assay: as above
# [9] = compound: CN1CCN(C(=O)c2ccc3cc(CCNc4ncnc5ccc(C#N)cc45)ccc3c2)CC1 [senexin b]
# [10] = compound: O=C1NC(=O)[C@@H](c2cn3c4c(cccc24)CCC3)[C@@H]1c1c[nH]c2ccccc12 [Tivantinib/ARQ197]
# [11] = compound: Cc1cc(Nc2ncc(Cl)c(Nc3ccccc3S(=O)(=O)C(C)C)n2)c(OC(C)C)cc1C1CCNCC1 [Ceritinib/LDK378]
# [12] = compound: CS(=O)(=O)N1CCN(Cc2cc3nc(-c4cccc5[nH]ncc45)nc(N4CCOCC4)c3s2)CC1 [Pictilisib/GDC0941]
# [13] = compound: CC(=O)O[C@H]1C(=O)[C@@]2(C)[C@H]([C@H](OC(=O)c3ccccc3)[C@]3(O)C[C@H](OC(=O)[C@H](O)[C@@H](NC(=O)c4ccccc4)c4ccccc4)C(C)=C1C3(C)C)[C@]1(OC(C)=O)CO[C@@H]1C[C@@H]2O [Paclitaxel]
# [14] = compound: CN(C)C/C=C/C(=O)Nc1ccc(O[C@@H]2CCC[C@@H](Nc3ncc(Cl)c(-c4c[nH]c5ccccc45)n3)C2)cc1 [BSJ-01-175]
# [15] = compound: T1, THZ531
# [16] = compound: CNCc1ccc(-c2[nH]c3cc(F)cc4c3c2CCNC4=O)cc1 [Rucaparib]
# [17] = compound: C[C@@H]1COCCN1c1cc(C2([S@](C)(=N)=O)CC2)nc(-c2cc[nH]c3nccc2-3)n1 [AZD6738]
# [18] = compound: COc1cc2c(Oc3ccc4[nH]c(C)cc4c3F)ncnc2cc1OCCCN1CCCC1 [Cediranib/AZD2171]
# 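For GR50, 72 h in this document: breast cancer and non-malignant breast epithelial cell lines, Deep Dye Drop or Dye Drop imaging, nine half-log doses, GR normalized to time-zero plates and DMSO-only controls.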
cell line,measurement,setting,value
EFM19,GR value,[1]; 0.0001 µM,0.946 GR
same,GR value,[1]; 0.0003162 µM,1.1 GR
same,GR value,[1]; 0.001 µM,1.04 GR
same,GR value,[1]; 0.003162 µM,0.932 GR
same,GR value,[1]; 0.01 µM,1.01 GR
same,GR value,[1]; 0.03162 µM,0.922 GR
same,GR value,[1]; 0.1 µM,0.86 GR
same,GR value,[1]; 0.3162 µM,0.69 GR
same,GR value,[1]; 1 µM,-0.299 GR
same,GR value,[2]; 0.0001 µM,1.1 GR
same,GR value,[2]; 0.0003162 µM,1.09 GR
same,GR value,[2]; 0.001 µM,1.15 GR
same,GR value,[2]; 0.003162 µM,1.15 GR
same,GR value,[2]; 0.01 µM,1.05 GR
same,GR value,[2]; 0.03162 µM,0.509 GR
same,GR value,[2]; 0.1 µM,-0.295 GR
same,GR value,[2]; 0.3162 µM,-0.448 GR
same,GR value,[2]; 1 µM,-0.534 GR
same,GR value,[3]; 0.001 µM,0.892 GR
same,GR value,[3]; 0.003162 µM,0.802 GR
same,GR value,[3]; 0.01 µM,0.825 GR
same,GR value,[3]; 0.03162 µM,0.914 GR
same,GR value,[3]; 0.1 µM,0.688 GR
same,GR value,[3]; 0.3162 µM,0.61 GR
same,GR value,[3]; 1 µM,0.6 GR
same,GR value,[3]; 3.162 µM,0.415 GR
same,GR value,[3]; 10 µM,0.355 GR
same,GR value,[4]; 0.001 µM,0.984 GR
same,GR value,[4]; 0.003162 µM,0.967 GR
same,GR value,[4]; 0.01 µM,0.802 GR
same,GR value,[4]; 0.03162 µM,0.442 GR
same,GR value,[4]; 0.1 µM,0.359 GR
same,GR value,[4]; 0.3162 µM,0.337 GR
same,GR value,[4]; 1 µM,0.327 GR
same,GR value,[4]; 3.162 µM,0.359 GR
same,GR value,[4]; 10 µM,0.269 GR
same,GR value,[5]; 0.0001 µM,0.996 GR
same,GR value,[5]; 0.0003162 µM,0.978 GR
same,GR value,[5]; 0.001 µM,0.907 GR
same,GR value,[5]; 0.003162 µM,0.911 GR
same,GR value,[5]; 0.01 µM,1.07 GR
same,GR value,[5]; 0.03162 µM,0.896 GR
same,GR value,[5]; 0.1 µM,1 GR
same,GR value,[5]; 0.3162 µM,0.801 GR
same,GR value,[5]; 1 µM,-0.59 GR
same,GR value,[6]; 0.001 µM,0.518 GR
same,GR value,[6]; 0.003162 µM,0.329 GR
same,GR value,[6]; 0.01 µM,0.259 GR
same,GR value,[6]; 0.03162 µM,0.219 GR
same,GR value,[6]; 0.1 µM,0.134 GR
same,GR value,[6]; 0.3162 µM,0.178 GR
same,GR value,[6]; 1 µM,0.106 GR
same,GR value,[6]; 3.162 µM,0.149 GR
same,GR value,[6]; 10 µM,0.0614 GR
same,GR value,[7]; 0.0003162 µM,1.05 GR
same,GR value,[7]; 0.001 µM,1.03 GR
same,GR value,[7]; 0.003162 µM,1.03 GR
same,GR value,[7]; 0.01 µM,1.02 GR
same,GR value,[7]; 0.03162 µM,0.941 GR
same,GR value,[7]; 0.1 µM,0.843 GR
same,GR value,[7]; 0.3162 µM,0.626 GR
same,GR value,[7]; 1 µM,0.401 GR
same,GR value,[7]; 3.162 µM,0.284 GR
same,GR value,[8]; 0.001 µM,0.951 GR
same,GR value,[8]; 0.003162 µM,0.918 GR
same,GR value,[8]; 0.01 µM,0.806 GR
same,GR value,[8]; 0.03162 µM,0.733 GR
same,GR value,[8]; 0.1 µM,0.717 GR
same,GR value,[8]; 0.3162 µM,0.654 GR
same,GR value,[8]; 1 µM,0.48 GR
same,GR value,[8]; 3.162 µM,0.447 GR
same,GR value,[8]; 10 µM,0.117 GR
same,"GR50, 72 h",[9],> 10 µM
same,"GR50, 72 h",[10],0.658 µM
same,"GR50, 72 h",[11],5.52 µM
same,"GR50, 72 h",[12],0.23 µM
same,"GR50, 72 h",[13],0.00438 µM
same,"GR50, 72 h",[14],1.51 µM
same,"GR50, 72 h",[15],0.466 µM
same,"GR50, 72 h",[16],> 10 µM
same,"GR50, 72 h",[17],> 10 µM
same,"GR50, 72 h",[18],> 10 µM
